Among the data in patent publication US12435095B2, “Substituted morpholines as ATR kinase inhibitors” (Shanghai Annova Biotechnology Co., Ltd., priority 2021, dated 2025) are IC50 and Emax values, retold here.

This experiment has as its system human colon cancer LoVo cells. Kind of experiment: Cell proliferation inhibition assay (CellTiter-Glo). The conditions noted are these: Homo sapiens, LoVo, 96 h. It counts as cell-based. An excerpt:
Experimental method: A CellTiter-Glo cell viability assay kit was used to test the inhibitory effect of the compounds on the in vitro proliferation of human colon cancer LoVo cells.
Experimental materials: LoVo cells (ATCC, Cat. No. CCL-29); F-12K medium (Invitrogen, Cat. No. 21127-022); fetal bovine serum (Biological Industries, Cat. No. 04-002-1A); GlutaMAX (Gibco, Cat. No. 35050-061); 0.25% trypsin-EDTA (Invitrogen, Cat. No. 25200-072); CellTiter-Glo kit (Promega, Cat. No. G7558).
Experimental procedure: (1) F-12K medium, fetal bovine serum and GlutaMAX were formulated into a complete medium for culturing LoVo cells; (2) well-grown LoVo cells were taken, digested with trypsin and transferred to a centrifuge tube, and centrifuged; the supernatant was discarded, and cells were resuspended by adding a fresh medium and counted by a Vi-CELL XR cell counter; the density of the cell suspension was adjusted to 25,000 to 30,000 cells/mL, and the cell suspension was added at 100 μL/well in a 96-well cell culture plate, while a blank control group was set up with no cells added, and the cell culture plate was incubated in a carbon dioxide incubator overnight; (3) a DMSO solution of the compound to be tested was dispensed into the above 96-well cell culture plate using an HP D300 ultra-micro sampler, with 0.5 μL of the solution per well and 10 concentrations for each compound (3× dilution), while a DMSO control group with no compound added was set up, and the plate was continued to be incubated in a carbon dioxide incubator for 96 hours; (4) the cell culture plate was taken out and equilibrated to room temperature, with 100 μL of a CellTiter-Glo reagent added to each well, and then the plate was kept away from light, shaken for 10 minutes and then incubated for 10 minutes; (5) the cell culture plate was put into EnSpire for plate reading, and the luminescence value RLU was recorded.
Data processing: (1) The inhibition rate was calculated from the luminescence values: “RLUDMSO” is the luminescence value of the DMSO control group without compound, “RLUblank” is the luminescence value of the blank control group without cells, and “RLUcompound” is the luminescence value of the compound test group, and the inhibition rate=[1−(RLUcompound−RLUblank)/(RLUDMSO−RLUblank)]×100%; (2) with curve fitting using the Excel add-on XLFit, the IC50 value was calculated.

Take `C[C@@H]1COCCN1c1nc(-c2ccnc3[nH]ccc23)nc2c1ccn2S(=O)(=O)N(C)C` [Compound 34, (R)—N,N-dimethyl-4-(3-methylmorpholinyl)-2-(1H-pyrrolo[2,3-b]pyridin-4-yl)-7H-pyrrolo[2,3-d]pyrimidine-7-sulfamide]: under “read-out: LoVo IC50”, the IC50 – broadly, the point on the concentration scale where inhibition reaches its midpoint – was 290 nM. Besides, the Emax (read-out: Max Inhibition) turned out to be 93%.
